Patent US20220281848A1, “PYRAZOLE-SUBSTITUTED PYRROLIDINONES AS HERBICIDES” (FMC Corporation, priority 2019, published 2022)

System: plants
Experiment: Test D pre-emergence, other plants of Tables D1 and D3
Format: in vivo
Settings: pre-emergence, 100=total damage, 0=no damage
Method in brief: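 Damage was rated visually from 0 (none) to 100 (total), at 20 DAA for pre-emergence and 15 d for post-emergence. Plants grew from safener-treated seed in a glasshouse at 24/18° C. or 20/16° C. day/night, 65% humidity, watered twice daily.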

CN1CC(c2cc(C(F)(F)F)n(C)n2)C(C(=O)Nc2cccc(F)c2C(F)(F)F)C1=O (racemic) [Compound 19]
0: damage to plant, ALOMY (rate 15, 20 DAA) | damage to plant, AVEFA (rate 15, 20 DAA) | damage to plant, BEAVA (rate 15, 20 DAA) | damage to plant, BROTE (rate 15, 20 DAA) | damage to plant, BRSNN (rate 15, 20 DAA) | damage to plant, CHEAL (rate 15, 20 DAA) | damage to plant, GALAP (rate 15, 20 DAA) | damage to plant, HORVW (rate 15, 20 DAA) | damage to plant, KCHSC (rate 15, 20 DAA) | damage to plant, LOLPE (rate 15, 20 DAA) | damage to plant, POAAN (rate 15, 20 DAA) | damage to plant, POLCO (rate 15, 20 DAA) | damage to plant, SINAR (rate 15, 20 DAA) | damage to plant, STEME (rate 15, 20 DAA) | damage to plant, VERPE (rate 15, 20 DAA) | damage to plant, ALOMY (rate 30, 20 DAA) | damage to plant, AVEFA (rate 30, 20 DAA) | damage to plant, BEAVA (rate 30, 20 DAA) | damage to plant, BROTE (rate 30, 20 DAA) | damage to plant, BRSNN (rate 30, 20 DAA) | damage to plant, CHEAL (rate 30, 20 DAA) | damage to plant, GALAP (rate 30, 20 DAA) | damage to plant, HORVW (rate 30, 20 DAA) | damage to plant, KCHSC (rate 30, 20 DAA) | damage to plant, LOLPE (rate 30, 20 DAA) | damage to plant, POAAN (rate 30, 20 DAA) | damage to plant, POLCO (rate 30, 20 DAA) | damage to plant, SINAR (rate 30, 20 DAA) | damage to plant, STEME (rate 30, 20 DAA) | damage to plant, VERPE (rate 30, 20 DAA) | damage to plant, ALOMY (rate 60, 20 DAA) | damage to plant, AVEFA (rate 60, 20 DAA) | damage to plant, BEAVA (rate 60, 20 DAA) | damage to plant, BROTE (rate 60, 20 DAA) | damage to plant, BRSNN (rate 60, 20 DAA) | damage to plant, CHEAL (rate 60, 20 DAA) | damage to plant, GALAP (rate 60, 20 DAA) | damage to plant, HORVW (rate 60, 20 DAA) | damage to plant, KCHSC (rate 60, 20 DAA) | damage to plant, LOLPE (rate 60, 20 DAA) | damage to plant, POLCO (rate 60, 20 DAA) | damage to plant, SINAR (rate 60, 20 DAA) | damage to plant, STEME (rate 60, 20 DAA) | damage to plant, VERPE (rate 60, 20 DAA) | damage to plant, ALOMY (rate 130, 20 DAA) | damage to plant, AVEFA (rate 130, 20 DAA) | damage to plant, BEAVA (rate 130, 20 DAA) | damage to plant, BROTE (rate 130, 20 DAA) | damage to plant, BRSNN (rate 130, 20 DAA) | damage to plant, CHEAL (rate 130, 20 DAA) | damage to plant, GALAP (rate 130, 20 DAA) | damage to plant, HORVW (rate 130, 20 DAA) | damage to plant, KCHSC (rate 130, 20 DAA) | damage to plant, LOLPE (rate 130, 20 DAA) | damage to plant, POLCO (rate 130, 20 DAA) | damage to plant, SINAR (rate 130, 20 DAA) | damage to plant, STEME (rate 130, 20 DAA) | damage to plant, VERPE (rate 130, 20 DAA) | damage to plant, BEAVA (rate 250, 20 DAA) | damage to plant, BRSNN (rate 250, 20 DAA) | damage to plant, GALAP (rate 250, 20 DAA) | damage to plant, HORVW (rate 250, 20 DAA) | damage to plant, KCHSC (rate 250, 20 DAA) | damage to plant, POLCO (rate 250, 20 DAA) | damage to plant, SINAR (rate 250, 20 DAA) | damage to plant, BEAVA (rate 500, 20 DAA) | damage to plant, GALAP (rate 500, 20 DAA) | damage to plant, KCHSC (rate 500, 20 DAA) | damage to plant, SINAR (rate 500, 20 DAA)
20: damage to plant, POAAN (rate 130, 20 DAA) | damage to plant, ALOMY (rate 250, 20 DAA) | damage to plant, BRSNN (rate 500, 20 DAA) | damage to plant, CHEAL (rate 500, 20 DAA) | damage to plant, HORVW (rate 500, 20 DAA)
10: damage to plant, POAAN (rate 60, 20 DAA) | damage to plant, AVEFA (rate 250, 20 DAA) | damage to plant, BROTE (rate 250, 20 DAA) | damage to plant, CHEAL (rate 250, 20 DAA) | damage to plant, STEME (rate 250, 20 DAA) | damage to plant, POLCO (rate 500, 20 DAA)
80: damage to plant, POAAN (rate 250, 20 DAA) | damage to plant, LOLPE (rate 500, 20 DAA) | damage to plant, POAAN (rate 500, 20 DAA)
60: damage to plant, VERPE (rate 250, 20 DAA) | damage to plant, STEME (rate 500, 20 DAA)
70: damage to plant, ALOMY (rate 500, 20 DAA) | damage to plant, AVEFA (rate 500, 20 DAA) | damage to plant, VERPE (rate 500, 20 DAA)
30: damage to plant, LOLPE (rate 250, 20 DAA) | damage to plant, BROTE (rate 500, 20 DAA)
